{"source": "patent US20260256792A1", "about": "“TREATMENT OF CHRONIC SPONTANEOUS URTICARIA BY ADMINISTERING (R)-2-[3-[4-AMINO-3-(2-FLUORO-4-PHENOXY-PHENYL)PYRAZOLO[3,4-D]PYRIMIDIN-1-YL]PIPERIDINE-1-CARBONYL]-4-METHYL-4-[4-(OXETAN-3-YL)PIPERAZIN-1-YL]PENT-2-ENENITRILE” (priority 2023, published 2026)", "tested_on": "angioedema in CSU patients", "assay": "Phase 2 CSU study: angioedema activity score over 7 days (AAS7)", "assay_type": "in vivo, human", "conditions": "400 mg TID; for AAS7 % Change difference for rilzabrutinib vs. placebo LS Mean (95% CI) / AAS7 % Change from baseline LS Mean (SE) / AAS7 = 0, Non-responder n (%) / AAS7 = 0, OR (95% CI) for rilzabrutinib vs. placebo / AAS7 = 0, RRD (%) for rilzabrutinib vs. placebo (95% CI) / AAS7 Post-baseline Mean (SD) / Participants with AAS7 = 0, Responder n (%) / AAS7 Change difference for rilzabrutinib vs. placebo LS Mean (95% CI) / AAS7 Change from baseline LS Mean (SE): angioedema at baseline; for Non-responder n (%), AAS7 = 0 / OR (95% CI) for rilzabrutinib vs. placebo, AAS7 = 0 / RRD (%) for rilzabrutinib vs. placebo (95% CI), AAS7 = 0 / Responder n (%), AAS7 = 0: outlier removed", "text": "The study comprises a 12 week, randomized, double-blind, placebo-controlled, multi-center, dose-ranging efficacy and safety phase, followed by a 40 week open label extension (OLE) phase (see FIG. 1). The study consists of three phases and an optional OLE phase. […] The weekly angioedema activity score (AAS7) was proposed as a tertiary endpoint. […] Patients were to complete the AAS using the e-diary. The e-diary was to be used once daily on the same time of each day recording of participant's answers to the angioedema activity score over 7 days (AAS7) questionnaire.", "data": [{"smiles": "CC(C)(C=C(C#N)C(=O)N1CCC[C@@H](n2nc(-c3ccc(Oc4ccccc4)cc3F)c3c(N)ncnc32)C1)N1CCN(C2COC2)CC1", "note": "[rilzabrutinib, (R)-2-[3-[4-amino-3-(2-fluoro-4-phenoxy-phenyl)pyrazolo[3,4-d]pyrimidin-1-yl]piperidine-1-carbonyl]-4-methyl-4-[4-(oxetan-3-yl)piperazin-1-yl]pent-2-enenitrile]", "values": [{"measurement": "AAS7 % Change difference for rilzabrutinib vs. placebo LS Mean (95% CI)", "setting": "Week 4, omalizumab-naïve", "value": "−49.61 (−90.06, −9.16) %"}, {"measurement": "AAS7 % Change from baseline LS Mean (SE)", "setting": "Week 4, omalizumab-naïve", "value": "−79.54 (14.89) %"}, {"measurement": "AAS7 = 0, Non-responder n (%)", "setting": "Week 4, omalizumab-naïve", "value": "14 (60.9) n (%)"}, {"measurement": "AAS7 = 0, OR (95% CI) for rilzabrutinib vs. placebo", "setting": "Week 4, omalizumab-naïve", "value": 1.519}, {"measurement": "AAS7 = 0, RRD (%) for rilzabrutinib vs. placebo (95% CI)", "setting": "Week 4, omalizumab-naïve", "value": 7.3, "unit": "%"}, {"measurement": "AAS7 Post-baseline Mean (SD)", "setting": "Week 4, omalizumab-naïve", "value": "11.73 (16.82)"}, {"measurement": "Participants with AAS7 = 0, Responder n (%)", "setting": "Week 4, omalizumab-naïve", "value": "9 (39.1) n (%)"}, {"measurement": "AAS7 % Change from baseline LS Mean (SE)", "setting": "Week 5, ITT", "value": "−69.87 (9.90) %"}, {"measurement": "AAS7 Change difference for rilzabrutinib vs. placebo LS Mean (95% CI)", "setting": "Week 5, ITT", "value": "−9.32 (−20.56, 1.93)"}, {"measurement": "AAS7 Change from baseline LS Mean (SE)", "setting": "Week 5, ITT", "value": "−38.91 (4.22)"}, {"measurement": "Non-responder n (%), AAS7 = 0", "setting": "Week 5, omalizumab-naïve", "value": "14 (41.2) n (%)"}, {"measurement": "OR (95% CI) for rilzabrutinib vs. placebo, AAS7 = 0", "setting": "Week 5, omalizumab-naïve", "value": 1.359}, {"measurement": "RRD (%) for rilzabrutinib vs. placebo (95% CI), AAS7 = 0", "setting": "Week 5, omalizumab-naïve", "value": 7.5, "unit": "%"}, {"measurement": "Responder n (%), AAS7 = 0", "setting": "Week 5, omalizumab-naïve", "value": "20 (58.8) n (%)"}, {"measurement": "AAS7 % Change difference for rilzabrutinib vs. placebo LS Mean (95% CI)", "setting": "Week 5, omalizumab-naïve", "value": "−17.62 (−46.15, 10.90) %"}, {"measurement": "AAS7 = 0, Non-responder n (%)", "setting": "Week 5, omalizumab-naïve", "value": "13 (56.5) n (%)"}, {"measurement": "AAS7 = 0, OR (95% CI) for rilzabrutinib vs. placebo", "setting": "Week 5, omalizumab-naïve", "value": 1.550}, {"measurement": "AAS7 = 0, RRD (%) for rilzabrutinib vs. placebo (95% CI)", "setting": "Week 5, omalizumab-naïve", "value": 9.8, "unit": "%"}, {"measurement": "AAS7 Post-baseline Mean (SD)", "setting": "Week 5, omalizumab-naïve", "value": "10.83 (15.39)"}, {"measurement": "Participants with AAS7 = 0, Responder n (%)", "setting": "Week 5, omalizumab-naïve", "value": "10 (43.5) n (%)"}, {"measurement": "AAS7 Change difference for rilzabrutinib vs. placebo LS Mean (95% CI)", "setting": "Week 6, ITT", "value": "−11.42 (−23.52, 0.68)"}, {"measurement": "AAS7 Change from baseline LS Mean (SE)", "setting": "Week 6, ITT", "value": "−38.03 (4.48)"}, {"measurement": "AAS7 Post-baseline Mean (SD)", "setting": "Week 6, ITT", "value": "12.73 (19.47)"}, {"measurement": "Non-responder n (%), AAS7 = 0", "setting": "Week 6, omalizumab-naïve", "value": "14 (41.2) n (%)"}, {"measurement": "OR (95% CI) for rilzabrutinib vs. placebo, AAS7 = 0", "setting": "Week 6, omalizumab-naïve", "value": 1.334}, {"measurement": "RRD (%) for rilzabrutinib vs. placebo (95% CI), AAS7 = 0", "setting": "Week 6, omalizumab-naïve", "value": 6.5, "unit": "%"}, {"measurement": "Responder n (%), AAS7 = 0", "setting": "Week 6, omalizumab-naïve", "value": "20 (58.8) n (%)"}, {"measurement": "AAS7 % Change difference for rilzabrutinib vs. placebo LS Mean (95% CI)", "setting": "Week 6, omalizumab-naïve", "value": "−15.46 (−46.06, 15.15) %"}, {"measurement": "AAS7 = 0, Non-responder n (%)", "setting": "Week 6, omalizumab-naïve", "value": "12 (52.2) n (%)"}, {"measurement": "AAS7 = 0, OR (95% CI) for rilzabrutinib vs. placebo", "setting": "Week 6, omalizumab-naïve", "value": 1.874}, {"measurement": "AAS7 = 0, RRD (%) for rilzabrutinib vs. placebo (95% CI)", "setting": "Week 6, omalizumab-naïve", "value": 13.5, "unit": "%"}, {"measurement": "AAS7 Post-baseline Mean (SD)", "setting": "Week 6, omalizumab-naïve", "value": "13.55 (20.58)"}, {"measurement": "Participants with AAS7 = 0, Responder n (%)", "setting": "Week 6, omalizumab-naïve", "value": "11 (47.8) n (%)"}, {"measurement": "AAS7 % Change difference for rilzabrutinib vs. placebo LS Mean (95% CI)", "setting": "Week 7, ITT", "value": "−22.57 (−53.40, 8.26) %"}, {"measurement": "AAS7 % Change from baseline LS Mean (SE)", "setting": "Week 7, ITT", "value": "−68.52 (11.69) %"}, {"measurement": "AAS7 Change difference for rilzabrutinib vs. placebo LS Mean (95% CI)", "setting": "Week 7, ITT", "value": "−9.86 (−21.60, 1.88)"}, {"measurement": "AAS7 Change from baseline LS Mean (SE)", "setting": "Week 7, ITT", "value": "−37.16 (4.45)"}, {"measurement": "AAS7 Post-baseline Mean (SD)", "setting": "Week 7, ITT", "value": "12.07 (15.62)"}, {"measurement": "Non-responder n (%), AAS7 = 0", "setting": "Week 7, omalizumab-naïve", "value": "15 (44.1) n (%)"}, {"measurement": "OR (95% CI) for rilzabrutinib vs. placebo, AAS7 = 0", "setting": "Week 7, omalizumab-naïve", "value": 1.277}, {"measurement": "RRD (%) for rilzabrutinib vs. placebo (95% CI), AAS7 = 0", "setting": "Week 7, omalizumab-naïve", "value": 6.5, "unit": "%"}, {"measurement": "Responder n (%), AAS7 = 0", "setting": "Week 7, omalizumab-naïve", "value": "19 (55.9) n (%)"}, {"measurement": "AAS7 % Change difference for rilzabrutinib vs. placebo LS Mean (95% CI)", "setting": "Week 7, omalizumab-naïve", "value": "−20.11 (−53.85, 13.63) %"}, {"measurement": "AAS7 % Change from baseline LS Mean (SE)", "setting": "Week 7, omalizumab-naïve", "value": "−67.11 (12.58) %"}, {"measurement": "AAS7 = 0, Non-responder n (%)", "setting": "Week 7, omalizumab-naïve", "value": "13 (56.5) n (%)"}, {"measurement": "AAS7 = 0, OR (95% CI) for rilzabrutinib vs. placebo", "setting": "Week 7, omalizumab-naïve", "value": 1.351}, {"measurement": "AAS7 = 0, RRD (%) for rilzabrutinib vs. placebo (95% CI)", "setting": "Week 7, omalizumab-naïve", "value": 7.2, "unit": "%"}, {"measurement": "AAS7 Post-baseline Mean (SD)", "setting": "Week 7, omalizumab-naïve", "value": "12.43 (15.87)"}, {"measurement": "Participants with AAS7 = 0, Responder n (%)", "setting": "Week 7, omalizumab-naïve", "value": "10 (43.5) n (%)"}, {"measurement": "AAS7 % Change difference for rilzabrutinib vs. placebo LS Mean (95% CI)", "setting": "Week 8, ITT", "value": "−22.25 (−53.63, 9.12) %"}, {"measurement": "AAS7 % Change from baseline LS Mean (SE)", "setting": "Week 8, ITT", "value": "−74.30 (11.67) %"}, {"measurement": "AAS7 Change difference for rilzabrutinib vs. placebo LS Mean (95% CI)", "setting": "Week 8, ITT", "value": "−11.02 (−22.54, 0.50)"}, {"measurement": "AAS7 Change from baseline LS Mean (SE)", "setting": "Week 8, ITT", "value": "−39.35 (4.28)"}, {"measurement": "AAS7 Post-baseline Mean (SD)", "setting": "Week 8, ITT", "value": "11.17 (12.56)"}, {"measurement": "Non-responder n (%), AAS7 = 0", "setting": "Week 8, omalizumab-naïve", "value": "19 (55.9) n (%)"}, {"measurement": "OR (95% CI) for rilzabrutinib vs. placebo, AAS7 = 0", "setting": "Week 8, omalizumab-naïve", "value": 0.964}, {"measurement": "RRD (%) for rilzabrutinib vs. placebo (95% CI), AAS7 = 0", "setting": "Week 8, omalizumab-naïve", "value": "−0.9", "unit": "%"}, {"measurement": "Responder n (%), AAS7 = 0", "setting": "Week 8, omalizumab-naïve", "value": "15 (44.1) n (%)"}, {"measurement": "AAS7 % Change from baseline LS Mean (SE)", "setting": "Week 8, omalizumab-naïve", "value": "−73.05 (12.72) %"}, {"measurement": "AAS7 = 0, Non-responder n (%)", "setting": "Week 8, omalizumab-naïve", "value": "17 (73.9) n (%)"}]}]}
